This passage reports EC50 results from patent publication US20140336182A1, “Aurora Kinase Modulators and Method of Use” (Amgen Inc., priority 2013, published 2014).

The test system of the first assay is HeLa cells. Nature of the assay: HeLa cell 24 hr ploidy assay (DNA content). The settings on record: Homo sapiens, HeLa, 4N ploidy, average, read-out: 24h_4NPloidy EC50_IP (uM Avg). In kind it is cell-based. As to the method:
HeLa cell 24 hr ploidy assay protocol
The purpose of this assay is to evaluate the ability of selected individual compounds to induce Deoxyribonucleic acid (DNA) content (ploidy) in cells through failed cell division. Cell cycle analysis is a rapid and efficient way to evaluate the status of DNA content (ploidy) of a given cell. HeLa cells (1×10^4 HeLa cells/well) in 100 ul of media (MEM+10% FBS) were plated in 96-well plates (Packard View) and cultured for 24 hrs at 37° C. maintained in a 5% CO2 atmosphere. […] The compounds were serially diluted in DMSO (0.25% final concentration). The cells were fixed (3.7% Formaldehyde and 1% glutaraldehyde) and permeabilized (1×PBS with 1% BSA and 0.2% Triton X-100) in preparation for nuclear staining. The well plates were stained for 45 minutes at RT in the dark using Hoechest 33342 nuclear stain at 0.5 ug.ml (Stock of 10 mg/ml, Invitrogen, CA, Cat #H3570). The nuclear stain was removed by aspiration and the cells were washed with wash buffer. A Cellomics Array Scan Vti plate reader was used to acquire the DNA ploidy data of the cells using Cell Cycle bioapplication. Numbers for each of “valid cell count/well”, “% of 4N cells” and “% of >4Ncells” were calculated with the assistance of an Activity Base 5.1ca software and dose curves were generated using an XLFit software. With XLFit, final EC50 IP and EC50 transit values, as well as the Max and Min, were calculated for each curve.
Regarding `Fc1cc(Nc2nnc(-c3ccccc3)c3ccccc23)ccc1Oc1ccnc2ccccc12` [compound 115], the EC50 came to 0.116 µM. Consider `COc1cc2nccc(Oc3ccc(Nc4nnc(N5CCCCC5)c5ccccc45)cc3)c2cc1OC` [compound 75], for which the EC50 came out at 0.025 µM. For the compound `COc1cnc2c(Oc3ccc(Nc4nnc(-c5cccc(CO)n5)c5ccccc45)cc3)ccnc2c1` [compound 114], the EC50 was found to be 0.39 µM. Take `COc1cc2nccc(Sc3ccc(Nc4nnc(-c5ccccc5)c5ccccc45)cc3)c2cc1OC` [compound 104]: the EC50 was found to be 0.02 µM. Still for that read-out and setting: as for `COc1ccc2c(Oc3ccc(Nc4nnc(-c5cc(C)ccn5)c5ccccc45)cc3)ccnc2c1` [compound 118], the figure is 0.11 µM; as for `COc1cnc2c(Oc3ccc(Nc4ncc(-c5ccccc5)c5ccccc45)cc3)ccnc2c1` [compound 144], 0.155 µM; as for `Brc1ccc2nccc(Oc3ccc(Nc4nnc(-c5ccccc5)c5ccccc45)cc3)c2c1` [compound 134], 0.091 µM. `COc1cnc2c(Oc3ccc(Nc4nnc(-c5ccc(C(C)C)cc5)c5ccccc45)cc3)ccnc2c1` [compound 155]: the EC50 worked out at 0.068 µM. As for `COc1cnc2c(Oc3ccc(Nc4nnc(N5CCN6CCCC6C5)c5ccccc45)cc3)ccnc2c1` (stereo not shown) [compound 92], the EC50 amounted to 0.054 µM. For the compound `COc1cnc2c(Oc3ccc(Nc4nnc(-c5ccccc5)cc4C)cc3)ccnc2c1` [compound 107], the EC50 stood at 0.39 µM. Regarding `COc1cc2nccc(Oc3ccc(Nc4nnc(-c5cccc(COC(C)=O)n5)c5ccccc45)cc3)c2cc1OC` [compound 113], the EC50 worked out at 0.048 µM.

Staying with this assay, now noted: Homo sapiens, HeLa, HeLa cells, 4N ploidy, average, read-out: 24h_4NPloidy EC50_IP (uM Avg).
As for `CCc1cc(-c2ccc(C)cc2)nnc1Nc1ccc(Sc2ccnc3cccnc23)cc1` [compound 358], the EC50 is 0.035 µM.

With `Cc1noc(-c2cc3nccc(Oc4ccc(Nc5nnc(-c6ccccc6)c6ccccc56)cc4)c3s2)n1` [compound 288], the EC50 turned out to be 0.828 µM. For `COc1cnc2c(Oc3ccc(Nc4nnc(-c5ccc(F)c(OC)c5)c5ccccc45)cc3)ccnc2c1` [compound 180], the EC50 stood at 0.025 µM. Regarding `Cc1ccc(-c2nnc(Nc3ccc(Oc4ccnc5ccoc45)cc3)c3ccccc23)cc1N` [compound 480], the EC50 came out at 0.112 µM. Turning to `FC1(F)Oc2ccc(-c3nnc(Nc4ccc(Oc5ccnc6ccsc56)cc4)c4ccccc34)cc2O1` [compound 293], the EC50 amounted to 0.045 µM. Turning to `COc1cnc2c(Oc3ccc(Nc4nnc(-c5cncnc5)c5ccccc45)cc3)ccnc2c1` [compound 215, N-(4-((7-(methyloxy)-1,5-naphthyridin-4-yl)oxy)phenyl)-4-(5-pyrimidinyl)-1-phthalazinamine], the EC50 is more than 1.2 µM. `Cc1ccc(-c2nnc(Nc3ccc(Oc4ccnc5ccncc45)cc3)c3ccccc23)nc1` [compound 432]: the EC50 was 0.109 µM. On the same count and under the same terms, as for `Nc1ccc2nccc(Sc3ccc(Nc4nnc(-c5ccccc5)c5ccccc45)cc3)c2c1` [Example 399, N-(4-(6-Aminoquinolin-4-ylthio)phenyl)-4-phenylphthalazin-1-amine], the figure is 0.019 µM. On to `FC(F)(F)Oc1ccc2c(Oc3ccc(Nc4nnc(-c5ccc(Cl)cc5)c5ccccc45)cc3)ccnc2c1` [compound 498], for which the EC50 was 0.078 µM. Turning to `COc1cnc2c(Oc3ccc(Nc4nnc(-c5ccc6c(c5)CCO6)c5ccccc45)cc3)ccnc2c1` [compound 168, 4-(2,3-dihydro-1-benzofuran-5-yl)-N-(4-((7-(methyloxy)-1,5-naphthyridin-4-yl)oxy)phenyl)-1-phthalazinamine], the EC50 was determined as 0.007 µM. On the same count and under the same terms, under `Cn1cc(-c2ccc3nccc(Oc4ccc(Nc5nnc(-c6ccccc6)c6ccccc56)cc4)c3c2)cn1` [Example 45, N-(4-(6-(1-Methyl-1H-pyrazol-4-yl)quinolin-4-yloxy)phenyl)-4-phenylphthalazin-1-amine] stands 0.056 µM. In the case of `COc1cnc2c(Oc3ccc(Nc4nnc(-c5ccc6cc[nH]c6c5)c5ccccc45)cc3)ccnc2c1` [compound 206], the EC50 amounted to 0.002 µM.

As to `Fc1cc(F)c2c(Sc3ccc(Nc4nnc(-c5ccc(Cl)cc5)c5ccccc45)cc3)ccnc2c1` [compound 342], the EC50 turned out to be 0.044 µM. Regarding `COc1cnc2c(Sc3ccc(Nc4nnc(-c5ccccc5)c5ccccc45)cn3)ccnc2c1` [compound 413], the EC50 stood at 0.041 µM. Consider `COc1cnc2c(Sc3ccc(Nc4nnc(-c5ccc(C)c(N)c5)c5ccccc45)cc3)ccnc2c1` [compound 477], for which the EC50 was 0.001 µM. In the case of `COc1ccc2nccc(Oc3ccc(Nc4nnc(-c5ccc(Cl)cn5)c5ccccc45)cc3)c2c1` [compound 278], the EC50 was 0.011 µM. Same read-out and setting: as for `COc1cnc2c(Sc3ccc(Nc4nnc(N5CCN(C(C)=O)CC5)c5ccccc45)cc3)ccnc2c1` [compound 608], the figure is 0.016 µM; as for `COc1cnc2c(Oc3ccc(Nc4nnc(-c5ccc(C#N)cc5)c5ccccc45)cc3)ccnc2c1` [compound 181], 0.104 µM. For the compound `COc1cnc2c(Sc3ccc(Nc4nnc(N5CCC(Cl)CC5)c5ccccc45)cc3)ccnc2c1` [compound 527], the EC50 was 0.004 µM. Turning to `Cn1cncc1-c1cc2nccc(Oc3ccc(Nc4nnc(-c5ccccc5)c5ccccc45)cc3)c2s1` [compound 202, N-(4-((2-(1-methyl-1H-imidazol-5-yl)thieno[3,2-b]pyridin-7-yl)oxy)phenyl)-4-phenyl-1-phthalazinamine], the EC50 amounted to 0.011 µM.

Take `COc1cc(OC)c2c(Oc3ccc(Nc4nnc(-c5ccccc5)c5ccccc45)cn3)ncnc2c1` [compound 606]: the EC50 amounted to 0.292 µM. `COCCOCCOc1ccc2nccc(Sc3ccc(Nc4nnc(-c5ccc(Cl)cc5)c5ccccc45)cc3)c2c1` [Example 389, 4-(4-Chlorophenyl)-N-(4-(6-(2-(2-methoxyethoxy)ethoxy)quinolin-4-ylthio)phenyl) phthalazin-1-amine]: the EC50 amounted to 0.055 µM. Turning to `COc1cnc2c(Oc3ccc(Nc4nnc(-c5cccc(N(C)C)c5)c5ccccc45)cc3)ccnc2c1` [compound 258], the EC50 turned out to be 0.004 µM. Turning to `c1ccc(-c2nnc(Nc3ccc(Oc4ncnc5nc[nH]c45)cc3)c3ccccc23)cc1` [compound 257], the EC50 was more than 1.2 µM. The same measure, in the same setting: under `CCc1cc(-c2cccc(Cl)c2)nnc1Nc1ccc(Oc2ccnc3cc(OC)cnc23)cc1` [compound 335] stands 0.191 µM; under `COc1cnc2c(Oc3ccc(Nc4nnc(-c5ncco5)c5ccccc45)cc3)ccnc2c1` [compound 200], 0.314 µM; under `Cc1ccc(-c2nnc(Nc3ccc(Oc4ccnc5ccsc45)cc3)c3ccccc23)cc1` [compound 252], 0.027 µM.

In the case of `Cc1csc(-c2nnc(Nc3ccc(Sc4ccnc5cccnc45)cc3)c3ccccc23)c1` [compound 336], the EC50 came to 0.001 µM.

On to `O=C(c1cc2nccc(Oc3ccc(Nc4nnc(-c5ccc(Cl)cc5)c5ccccc45)cc3)c2s1)N1CCOCC1` [compound 259], for which the EC50 was determined as 0.051 µM. As to `COc1cnc2c(Sc3ccc(Nc4nnc(N5CCCC5)c5ccccc45)cc3)ccnc2c1` [compound 521], the EC50 was determined as 0.021 µM.

Turning to `c1ccc(-c2nnc(Nc3ccc(Sc4ccnc5[nH]ncc45)cc3)c3ccccc23)cc1` [compound 352], the EC50 turned out to be 0.055 µM. On the same count and under the same terms, under `COc1cnc2c(Sc3ccc(Nc4nnc(SC)c5ccccc45)cc3)ccnc2c1` [compound 514] stands 0.02 µM. On to `O=C(c1cc2nccc(Sc3ccc(Nc4nnc(-c5ccccc5)c5ccccc45)cc3)c2s1)N1CCOCC1` [compound 313], for which the EC50 stood at 0.076 µM. With `COc1cnc2c(Sc3ccc(Nc4nnc(N5CCN6CCCC[C@@H]6C5)c5ccccc45)cc3)ccnc2c1` [compound 580], the EC50 turned out to be 0.005 µM. Take `COc1cnc2c(Sc3ccc(Nc4nnc(OCCC5CCCCN5)c5ccccc45)cc3)ccnc2c1` (stereo not shown) [Example 403, N-(4-(7-Methoxy-1,5-naphthyridin-4-ylthio)phenyl)-4-(2-(piperidin-2-yl)ethoxy)phthalazin-1-amine]: the EC50 came to 0.037 µM.

Regarding `Clc1ccc(-c2nnc(Nc3ccc(Sc4ccnc5[nH]cnc45)cc3)c3ccccc23)cc1` [compound 363], the EC50 was 0.032 µM. Consider `c1ccc(-c2nnc(Nc3ccc(Sc4ccnc5[nH]cnc45)cc3)c3ccccc23)cc1` [compound 362], for which the EC50 amounted to 0.105 µM. `COc1ccc(-c2nnc(Nc3ccc(Sc4ccnc5cccnc45)cc3)c3ccccc23)cn1` [compound 509]: the EC50 was 0.008 µM. Same read-out and setting: under `COc1cnc2c(Sc3ccc(Nc4nnc(N5CCC(F)CC5)c5ccccc45)cc3)ccnc2c1` [compound 557] stands 0.026 µM.

As to `Clc1ccc(-c2nnc(Nc3ccc(Sc4ccnc5c4CCCN5)cc3)c3ccccc23)cc1` [compound 570], the EC50 turned out to be 0.008 µM.

For `COc1ccc2nccc(Sc3ccc(Nc4nnc(N5CCCCC5)c5ccccc45)cc3)c2n1` [compound 548], the EC50 amounted to 0.036 µM. As for `COc1cccc(-c2nnc(Nc3ccc(Oc4ccnc5ccccc45)c(F)c3)c3ccccc23)n1` [compound 186], the EC50 was 0.031 µM. Regarding `COc1cnc2c(Sc3ccc(Nc4nnc(-c5cscn5)c5ccccc45)cc3)ccnc2c1` [compound 506], the EC50 stood at 0.067 µM. As for `Fc1ccc2c(Oc3ccc(Nc4nnc(-c5ccc(Cl)cc5)c5ccccc45)cc3)ccnc2c1` [compound 455], the EC50 was 0.008 µM.
